In patent publication US7713994B2 (Wyeth LLC, priority 2005, dated 2010):
Like-named read-outs stand apart in the source and are kept apart here.

Experiments:
cyclin B/CDK1 enzyme = target: T1, cyclin B/CDK1 enzyme (Homo sapiens, UniProt P06493); assay: CDK1 ELISA kinase assay (phospho-Rb ser 795 detection); type: biochemical
T1 construct: purchased New England BioLabs; host or cells: Sf9 insect cells, recombinant baculovirus
Method in brief: (§1)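 Screening was done at 10 ug/ml compound. Each partially purified cyclin/CDK complex, produced in baculovirus-infected Sf9 cells, phosphorylated a coated GST-Rb C-terminal fragment with 200 μM ATP, and Ser795 phosphorylation was quantified by HRP-ELISA at 450 nm.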

cyclin E/CDK2 enzyme = target: T2, cyclin E/CDK2 enzyme (Homo sapiens, UniProt P24941); assay: CDK2 ELISA kinase assay (phospho-Rb ser 795 detection); type: biochemical
T2 construct: made in house; host or cells: Sf9 insect cells, recombinant baculovirus
Method in brief: as §1

BT474 = assay: Cytotoxicity assay (SRB), BT474; type: cell-based
Method in brief: (§2)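 Percentage survival is derived from SRB absorbance (540 nm) versus untreated cells. Exposures were 3 days, except 6 days for BT474, at 37 °C and 7% CO2.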

MCF-7 = assay: Cytotoxicity assay (SRB), MCF-7; type: cell-based; settings: MCF-7 cells, SRB, read-out: In Vitro Cellular Activity IC50 MCF-7
Method in brief: as §2

LoVo = assay: Cytotoxicity assay (SRB), LoVo; type: cell-based; settings: LoVo cells, SRB, read-out: In Vitro Cellular Activity IC50 LOVO
Method in brief: as §2

HCT-116 = assay: Cytotoxicity assay (SRB), HCT-116; type: cell-based; settings: HCT116 cells, SRB, read-out: In Vitro Cellular Activity IC50 HCT116
Method in brief: as §2

cyclin D1/cdk 4 enzyme = target: T3, cyclin D1/cdk 4 enzyme (Homo sapiens, UniProt P11802); assay: CDK4 ELISA kinase assay (phospho-Rb ser 795 detection); type: biochemical
T3 construct: made in house; host or cells: Sf9 insect cells, recombinant baculovirus
Method in brief: as §1

[1] = In Vitro Enzyme Assay, cyclin B/CDK1, read-out: CDK1 IC50
[2] = In Vitro Enzyme Assay, cyclin E/CDK2, read-out: CDK2 IC50
[3] = Homo sapiens, BT-474, 144 h, BT474 cells, 6 days, SRB; read-out: In Vitro Cellular Activity IC50 BT474
[4] = Homo sapiens, MCF7, 72 h, 3 days
[5] = Homo sapiens, LoVo, 72 h, 3 days
[6] = Homo sapiens, HCT-116, 72 h, 3 days
[7] = In Vitro Enzyme Assay, cyclin D1/cdk 4, read-out: CDK4 IC50
[8] = In Vitro Enzyme Assays, read-out: CDK1 IC50
[9] = In Vitro Enzyme Assays, read-out: CDK2 IC50
[10] = In Vitro Enzyme Assays, 200 μM ATP, read-out: CDK4 IC50
[11] = Homo sapiens, BT-474, 144 h, BT474 cells, SRB, 6 days; read-out: In Vitro Cellular Activity IC50 BT474
[12] = Homo sapiens, MCF7, 72 h, three days
[13] = Homo sapiens, LoVo, 72 h, three days
[14] = Homo sapiens, HCT-116, 72 h, three days

T1 sequence (P06493 whole entry): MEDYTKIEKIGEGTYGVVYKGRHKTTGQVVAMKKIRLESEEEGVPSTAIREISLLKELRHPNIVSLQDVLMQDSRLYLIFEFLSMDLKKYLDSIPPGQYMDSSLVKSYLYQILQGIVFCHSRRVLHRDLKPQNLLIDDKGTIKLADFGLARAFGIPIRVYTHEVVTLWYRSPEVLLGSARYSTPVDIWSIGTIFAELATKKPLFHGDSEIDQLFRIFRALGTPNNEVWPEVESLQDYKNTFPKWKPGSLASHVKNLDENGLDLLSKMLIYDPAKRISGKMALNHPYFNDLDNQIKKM
T1 sequence (P14635 whole entry partner): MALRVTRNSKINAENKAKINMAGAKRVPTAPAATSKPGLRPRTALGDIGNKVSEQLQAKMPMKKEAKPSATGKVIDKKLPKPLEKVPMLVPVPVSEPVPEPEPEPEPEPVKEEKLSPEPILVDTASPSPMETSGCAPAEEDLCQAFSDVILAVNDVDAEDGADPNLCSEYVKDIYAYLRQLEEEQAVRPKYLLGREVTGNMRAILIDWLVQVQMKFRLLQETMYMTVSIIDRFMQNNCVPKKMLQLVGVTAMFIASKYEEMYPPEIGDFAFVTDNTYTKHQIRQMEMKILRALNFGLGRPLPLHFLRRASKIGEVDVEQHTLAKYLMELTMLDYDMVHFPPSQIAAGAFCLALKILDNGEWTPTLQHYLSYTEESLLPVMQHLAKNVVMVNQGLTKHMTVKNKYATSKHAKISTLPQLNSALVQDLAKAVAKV
T3 sequence (P11802 whole entry, species assumed): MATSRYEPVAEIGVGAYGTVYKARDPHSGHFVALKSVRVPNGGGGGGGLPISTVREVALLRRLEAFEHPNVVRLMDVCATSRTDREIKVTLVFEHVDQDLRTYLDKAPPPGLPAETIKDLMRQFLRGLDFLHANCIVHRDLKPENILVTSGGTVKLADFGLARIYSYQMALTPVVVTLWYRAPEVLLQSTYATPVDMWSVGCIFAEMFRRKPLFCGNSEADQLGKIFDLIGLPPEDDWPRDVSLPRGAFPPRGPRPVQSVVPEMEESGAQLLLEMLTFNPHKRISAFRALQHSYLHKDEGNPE
T3 sequence (P24385 whole entry partner, species assumed): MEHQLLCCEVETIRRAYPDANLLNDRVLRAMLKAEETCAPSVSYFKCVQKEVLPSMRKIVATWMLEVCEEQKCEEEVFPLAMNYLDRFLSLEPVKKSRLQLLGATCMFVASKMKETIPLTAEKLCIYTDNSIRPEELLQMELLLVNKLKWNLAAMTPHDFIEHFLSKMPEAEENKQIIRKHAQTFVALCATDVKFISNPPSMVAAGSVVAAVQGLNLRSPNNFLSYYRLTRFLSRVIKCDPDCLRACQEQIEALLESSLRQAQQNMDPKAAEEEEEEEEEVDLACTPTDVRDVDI

| Compound | IC50 (cyclin B/CDK1 enzyme; [1]) [µM] | IC50 (cyclin E/CDK2 enzyme; [2]) [µM] | IC50 (BT474; [3]) [µM] | IC50 (MCF-7; [4]) [µM] | IC50 (LoVo; [5]) [µM] | IC50 (HCT-116; [6]) [µM] | IC50 (cyclin D1/cdk 4 enzyme; [7]) [µM] | IC50 (cyclin B/CDK1 enzyme; [8]) [µM] | IC50 (cyclin E/CDK2 enzyme; [9]) [µM] | IC50 (cyclin D1/cdk 4 enzyme; [10]) [µM] | IC50 (BT474; [11]) [µM] | IC50 (MCF-7; [12]) [µM] | IC50 (LoVo; [13]) [µM] | IC50 (HCT-116; [14]) [µM] | IC50 (BT474; BT474 cells, SRB, 6 days; read-out: In Vitro Cellular Activity IC50 BT474) [µM] | IC50 (MCF-7; three days) [µM] | IC50 (LoVo; three days) [µM] | IC50 (HCT-116; three days) [µM] |
| --- | --- | --- | --- | --- | --- | --- | --- | --- | --- | --- | --- | --- | --- | --- | --- | --- | --- | --- |
| O=C1NC(=O)c2ccc(I)cc2/C1=C/Nc1ccc(CN2CCS(=O)(=O)CC2)cc1 [Example 483, 4-{[4-(1,1-Dioxo-1-thiomorpholin-4-ylmethyl)-phenylamino]-methylene}-6-iodo-4H-isoquinoline-1,3-dione] | > 50 | > 50 | > 50 | > 50 | > 50 | 13.1 | 16.1 | – | – | – | – | – | – | – | – | – | – | – |
| CN1CCN(c2ncc(N/C=C3\C(=O)NC(=O)c4ccc(-c5ccoc5)cc43)cn2)CC1 [Example 484, (4Z)-6-(3-Furyl)-4-({[2-(4-methylpiperazin-1-yl)pyrimidin-5-yl]amino}methylene)isoquinoline-1,3(2H,4H)-dione] | 31 | > 50 | 2.49 | 3.23 | 1.24 | 1.13 | 0.25 | – | – | – | – | – | – | – | – | – | – | – |
| CCN1CCN(c2ccc(N/C=C3\C(=O)NC(=O)c4ccc(-c5ccoc5)cc43)cn2)CC1 [Example 416, (4Z)-4-({[6-(4-Ethylpiperazin-1-yl)pyridin-3-yl]amino}methylene)-6-(3-furyl)isoquinoline-1,3(2H,4H)-dione] | – | – | 2.5 | 6.2 | 3.1 | 2.7 | – | > 50 | > 50 | 0.13 | – | – | – | – | – | – | – | – |
| CCCOc1ccc(CN/C=C2\C(=O)NC(=O)c3ccc(-c4ccoc4)cc32)cc1O [Example 485, (4Z)-6-(3-Furyl)-4-{[(3-hydroxy-4-propoxybenzyl)amino]methylene}isoquinoline-1,3(2H,4H)-dione] | > 50 | > 50 | 1.07 | 1.42 | 0.94 | 1.36 | 0.06 | – | – | – | – | – | – | – | – | – | – | – |
| CN(C)CCOc1ccc(N/C=C2\C(=O)NC(=O)c3ccc(Br)cc32)cc1 [Example 258, (4Z)-6-Bromo-4-[({4-[2-(dimethylamino)ethoxy]phenyl}amino)methylene]isoquinoline-1,3(2H,4H)-dione] | – | – | – | – | – | – | – | > 50 | > 50 | 0.48 | 8.3 | 6.7 | 5.3 | 3.5 | – | – | – | – |
| O=C1NC(=O)c2ccc(Br)cc2/C1=C/NCc1cc[nH]c(=O)c1 [Example 225, (4Z)-6-Bromo-4-({[(2-oxo-1,2-dihydropyridin-4-yl)methyl]amino}methylene)isoquinoline-1,3(2H,4H)-dione] | – | – | – | – | – | – | – | > 50 | 2.7 | 0.56 | 19.5 | > 50 | > 50 | > 50 | – | – | – | – |
| O=C1NC(=O)c2ccc(C3CCCC3)cc2/C1=C/NCc1ccc(-c2ccoc2)c(O)c1 [Example 536, 6-Cyclopentyl-4-[(4-furan-3-yl-3-hydroxy-benzylamino)-methylene]-4H-isoquinoline-1,3-dione] | > 50 | 3.1 | 0.43 | 2.1 | 0.51 | 1.1 | 0.02 | – | – | – | – | – | – | – | – | – | – | – |
| COc1cc(CN/C=C2\C(=O)NC(=O)c3ccc(Br)cc32)ccn1 [Example 222, (4Z)-6-Bromo-4-({[(2-methoxypyridin-4-yl)methyl]amino}methylene)isoquinoline-1,3(2H,4H)-dione] | – | – | – | – | – | – | – | > 50 | 6.1 | 31.7 | 13 | 13 | 19 | 14 | – | – | – | – |
| PEG5000thio-acetic acid 5-{[(6-bromo-1,3-dioxo-2,3-dihydro-1H-isoquinolin-4-ylidenemethyl)-amino]-methyl}-2-propoxy-phenyl ester [Example 228] | – | – | – | – | – | – | – | > 50 | > 50 | ~1.5 | – | – | – | – | ~1.2 | ~8.6 | ~2.5 | ~2.1 |
| N#Cc1cccc(-c2ccc3c(c2)C(=CNCc2ccc(O)c(O)c2)C(=O)NC3=O)c1 [Example 785, 3-{4-[(3,4-Dihydroxy-benzylamino)-methylene]-1,3-dioxo-1,2,3,4-tetrahydro-isoquinolin-6-yl}-benzonitrile] | > 50 | 38 | > 50 | 46.2 | > 50 | > 50 | 1.2 | – | – | – | – | – | – | – | – | – | – | – |
| O=C1NC(=O)c2ccc(-c3ccc[nH]3)cc2C1=CNCc1ccc(O)c(O)c1 [Example 647, 4-[(3,4-Dihydroxy-benzylamino)-methylene]-6-(1H-pyrrol-2-yl)-4H-isoquinoline-1,3-dione] | 8.6 | 2.6 | 18.3 | 19.5 | 9.5 | 15.3 | < 0.005 | – | – | – | – | – | – | – | – | – | – | – |
| O=C1NC(=O)c2ccc(I)cc2/C1=C/NCc1cc(O)ccc1I [Example 496, 4-[(5-Hydroxy-2-iodo-benzylamino)-methylene]-6-iodo-4H-isoquinoline-1,3-dione] | > 50 | > 50 | 7.4 | 5.4 | 3.1 | 2.6 | 2.7 | – | – | – | – | – | – | – | – | – | – | – |
| O=C1NC(=O)c2ccc(I)cc2/C1=C/Nc1ccc(N2CCN(CC3CC3)CC2)cc1 [Example 391, (4Z)-4-[({4-[4-(Cyclopropylmethyl)piperazin-1-yl]phenyl}amino)methylene]-6-iodoisoquinoline-1,3(2H,4H)-dione] | – | – | 3 | 2.6 | 7.3 | 2.4 | – | > 50 | > 50 | 0.5 | – | – | – | – | – | – | – | – |
| CN1CCCN(c2ccc(N/C=C3\C(=O)NC(=O)c4ccc(Br)cc43)cc2)CC1 [Example 232, (4Z)-6-Bromo-4-({[4-(4-methyl-1,4-diazepan-1-yl)phenyl]amino}methylene)isoquinoline-1,3(2H,4H)-dione] | – | – | – | – | – | – | – | > 50 | > 50 | 2.7 | 3.3 | 2.1 | 3.7 | 1.4 | – | – | – | – |
| O=C1NC(=O)c2ccc(-c3ccc4ccccc4c3)cc2C1=CNCc1ccc(O)c(O)c1 [Example 641, 4-[(3,4-Dihydroxy-benzylamino)-methylene]-6-naphthalen-2-yl-4H-isoquinoline-1,3-dione] | > 50 | > 50 | 19.7 | 9.6 | 9.4 | 10.5 | 1.9 | – | – | – | – | – | – | – | – | – | – | – |
| O=C1NC(=O)c2ccc(-c3ccc(Cl)s3)cc2/C1=C/Nc1ccc(CN2CCC[C@H]2CO)cc1 [Example 441, 6-(5-Chloro-thiophen-2-yl)-4-{[4-(2-hydroxymethyl-pyrrolidin-1-ylmethyl)-phenylamino]-methylene}-4H-isoquinoline-1,3-dione] | – | – | 3.2 | 2.3 | 2.9 | 1.1 | – | > 50 | > 50 | 0.14 | – | – | – | – | – | – | – | – |
| O=C1NC(=O)c2ccc(Br)cc2/C1=C/NCCCN1CCCC1=O [Example 311, (Z)-6-Bromo-4-((3-(2-oxopyrrolidin-1-yl)propylamino)methylene)isoquinoline-1,3(2H,4H)-dione] | – | – | – | – | – | – | – | > 50 | > 50 | 8.6 | 38 | 13 | 19 | 29 | – | – | – | – |
| CCCOc1cc(O)cc(CN/C=C2\C(=O)NC(=O)c3ccc(Br)cc32)c1 [Example 195] | – | – | – | – | – | – | – | > 50 | > 50 | 2 | 17 | 14 | 37 | 6.9 | – | – | – | – |
| CN1CCN(c2ccc(N/C=C3\C(=O)NC(=O)c4ccc(I)cc43)c(O)n2)CC1 [Example 447, (4Z)-4-({[2-Hydroxy-6-(4-methylpiperazin-1-yl)pyridin-3-yl]amino}methylene)-6-iodoisoquinoline-1,3(2H,4H)-dione] | – | – | 3 | 3.6 | 3.5 | 2 | – | 12.9 | 17.6 | 7.5 | – | – | – | – | – | – | – | – |
